Structures can show the parent of a compound that is named as a salt.
How the values were obtained:
MEK = assay: Cascade assay for inhibitors of the MAP kinase pathway (In Vitro); assay type: biochemical
Experimental: Incorporation of ^32P into myelin basic protein (MBP) was assayed in the presence of a glutathione S-transferase fusion protein containing p44MAP kinase (GST-MAPK) and a glutathione S-transferase fusion protein containing p45MEK (GST-MEK). The assay solution contained 20 mM HEPES, pH 7.4, 10 mM MgCl2, 1-mM MnCl2, 1 mM EGTA, 50 µM [γ-^32P]ATP, 10 µg GST-MEK, 0.5 µg GST-MAPK and 40 µg MBP in a final volume of 100 µL. […] Compounds were assessed at 10 µM for ability to inhibit incorporation of ^32P.
To ascertain whether compounds were inhibiting GST-MEK or GST MAPK, two additional protocols were employed. In the first protocol, compounds were added to tubes containing GST-MEK, followed by addition of GST-MAPK, MBP and [γ-^32P]ATP.

MAP kinase = assay: Whole cell MAP kinase assay (In Vivo, Cell Culture); assay type: cell-based
Experimental: Cells were then serum-deprived overnight. Cells were exposed to the desired concentrations of compound or vehicle (DMSO) for 30 minutes, followed by addition of a growth factor, for example, PDGF (100 ng/mL). After a 5-minute treatment with the growth factor, cells were washed with PBS, then lysed in a buffer consisting of 70 mM NaCl, 10 mM HEPES (pH 7.4), 50 mM glycerol phosphate, and 1% Triton X-100. Lysates were clarified by centrifugation at 13,000 × g for 10 minutes. Five micrograms of the resulting supernatants were incubated with 10 µg microtubule associated protein-2 (Map2) for 15 minutes at 30°C in a final volume of 25 µL containing 50 mM Tris (pH 7.4), 10 mM MgCl2, 2 mM EGTA and 30 µM [γ-^32P]ATP, Reactions were terminated by addition of Laemmli sample buffer.

| Molecule | IC50 (MEK) | also measured |
| --- | --- | --- |
| Cc1cc(I)ccc1Nc1c(C(=O)O)cc(F)c(F)c1F [Example 2, 3,4,5-Trifluoro-2-(4-iodo-2-methyl-phenylamino)-benzoic acid] | 14 nM | IC50 (MAP kinase): 3000 nM |
| Cc1cc(I)ccc1Nc1c(C(=O)O)ccc(F)c1F [Example 3, 3,4-Difluoro-2-(4-iodo-2-methyl-phenylamino)-benzoic acid] | 11.1 nM | IC50 (MAP kinase): 10000 nM |
| Cc1cc(I)ccc1Nc1c(F)cc(C(=O)O)c(F)c1F [Example 22, 2,3 ,5 -Trifluoro-4-(4-iodo-2-methyl-phenylamino)-benzoic acid] | 1580 nM | inhibition at 30 µM (MAP kinase): 30% |
| Cc1cc(I)ccc1Nc1cccc(F)c1C(=O)O [Example 26, 2-Fluoro-6-(4-iodo-2-methyl-phenylamino)-benzoic acid] | 2610 nM | inhibition at 30 µM (MAP kinase): 50% |
| Cc1cc(I)ccc1Nc1cc([N+](=O)[O-])ccc1C(=O)O [Example 30, 2-(4-Iodo-2-methyl-phenylamino)-4-nitro-benzoic acid] |  | In Vitro % Inhibition (MEK; compounds assessed at 10 µM): 105%; IC50 (MAP kinase): 10000 nM |
| Cc1cc(I)ccc1Nc1cc(F)ccc1CO [Example 49, 4-Fluoro-2-(4-iodo-2-methyl-phenylamino)-benzyl alcohol] | 418 nM | IC50 (MAP kinase): 3000 nM |
| Cc1cc(I)ccc1Nc1ccc(Cl)cc1C(=O)NCCO [Example 187, 5-Chloro-N-(2-hydroxy-ethyl)-2-(4-iodo-2-methyl-phenylamino)-benzamide] | 561 nM |  |
| Cc1cc(I)ccc1Nc1ccc([N+](=O)[O-])cc1C(=O)N(C)c1ccccc1 [Example 189, 2-(4-Iodo-2-methyl-phenylamino)-N-methyl-5-nitro-N-phenyl-benzamide] | 859 nM |  |
| Cc1cc(I)ccc1Nc1ccc(I)cc1C(=O)NCCO [Example 191, N-(2-Hydroxy-ethyl)-5-iodo-2-(4-iodo-2-methyl-phenylamino)-benzamide] | 1360 nM |  |
| Cc1cc(I)ccc1Nc1ccc(Cl)cc1C(=O)NC1CC1 [Example 192, 5-Chloro-N-cyclopropyl-2-(4-iodo-2-methyl-phenylamino)-benzamide] | 1800 nM |  |
| C=CCNC(=O)c1cc(Cl)ccc1Nc1ccc(I)cc1C [Example 193, N-Allyl-5-chloro-2-(4-iodo-2-methyl-phenylamino)-benzamide] | 2900 nM |  |
| Cc1cc(I)ccc1Nc1ccc(F)cc1C(=O)N(C)c1ccccc1 [Example 194, 5-Fluoro-2-(4-iodo-2-methyl-phenylamino)-N-methyl-N-phenyl-benzamide] | 4950 nM |  |
| Nc1c([N+](=O)[O-])cc(C(=O)O)c(Nc2ccc(I)cc2Cl)c1F [Example 211, 4-Amino-2-(2-chloro-4-iodo-phenylamino)-3-fluoro-5-nitro-benzoic acid] | > 100 nM |  |
| O=C(O)c1cc([N+](=O)[O-])c(Nc2ccc(I)cc2Cl)c(F)c1Nc1ccc(I)cc1Cl [Example 212, 2,4-Bis-(2-chloro-4-iodo-phenylamino)-3-fluoro-5-nitro-benzoic acid] | 34 nM |  |
| Cc1cc(I)ccc1Nc1cc(F)c([N+](=O)[O-])cc1C(=O)O [Example 213, 4-Fluoro-2-(4-iodo-2-methyl-phenylamino)-5-nitro-benzoic acid] | 62 nM |  |
| O=C(O)c1ccc(F)c(F)c1Nc1c(F)cc(I)cc1F [Example 214, 2-(2,6-Difluoro-4-iodo-phenylamino)-3,4-difluoro-benzoic acid] | 303 nM |  |
| O=C(O)c1ccc([N+](=O)[O-])cc1Nc1ccc(I)cc1Cl [Example 215, 2-(2-Chloro-4-iodo-phenylamino)-4-nitro-benzoic acid] | 31 nM |  |
| O=C(O)c1ccc(F)cc1Nc1ccc(I)cc1I [Example 216, 2-(2,4-Diiodo-phenylamino)-4-fluoro-benzoic acid] | 1000 nM |  |
| O=C(O)c1ccc(F)cc1Nc1ccc(I)cc1Br [Example 217, 2-(2-Bromo-4-iodo-phenylamino)-4-fluoro-benzoic acid] | > 1000 nM |  |
| O=C(O)c1ccc(F)cc1Nc1ccc(I)cc1Cl [Example 219, 2-(2-Chloro-4-iodo-phenylamino)-4-fluoro-benzoic acid] | 108 nM |  |
| N-(2,3-Dihydroxy-propyl)-3,4-difluoro-2-(4-iodo-2-methyl-phenylamino)-benzamide [Example 54] | 158 nM |  |
| N-(2,3-Dihydroxy-propyl)-4-fluoro-2-(4-iodo-2-methyl-phenylamino)-benzamide [Example 57] | 399 nM |  |

Second part, led by results:

| IC50 (MEK) | Molecule | also measured |
| --- | --- | --- |
| 5 nM | Cc1cc(I)ccc1Nc1c(C(=O)O)cc(Br)c(F)c1F [Example 4, 5-Bromo-3,4-difluoro-2-(4-iodo-2-methyl-phenylamino)-benzoic acid] | IC50 (MAP kinase): 1000 nM |
| 524 nM | Cc1cc(I)ccc1Nc1ccccc1C(=O)O [Example 19, 2-(4-Iodo-2-methyl-phenylamino)-benzoic acid] | inhibition at 30 µM (MAP kinase): 50% |
| 771 nM | Cc1cc(I)ccc1Nc1ccc(Br)cc1C(=O)NCCO [Example 188, 5-Bromo-N-(2-hydroxy-ethyl)-2-(4-iodo-2-methyl-phenylamino)-benzamide] |  |
| 921 nM | Cc1cc(I)ccc1Nc1ccc(Cl)cc1C(=O)N(C)c1ccccc1 [Example 190, 5-Chloro-2-(4-iodo-2-methyl-phenylamino)-N-methyl-N-phenyl-benzamide] |  |
| 1220 nM | Cc1cc(I)ccc1Nc1ccccc1-c1nnn[nH]1 [Example 208, (4-Iodo-2-methyl-phenyl)-[2-(1H-tetrazol-5-yl)-phenyl]amine] |  |
| 1370 nM | Cc1cc(I)ccc1Nc1ccc([N+](=O)[O-])cc1-c1nnn[nH]1 [Example 209, [4-Nitro-2-(1H-tetrazol-5-yl)phenyl]-(4-iodo-2-methyl-phenyl)-amine] |  |
| 51 nM | O=C(O)c1ccc(F)cc1Nc1ccc(I)cc1F [Example 218, 4-Fluoro-2-(2-fluoro-4-iodo-phenylamino)-benzoic acid] |  |
| 2 nM | COC(=O)c1c(F)c(F)c(N2CCN(C)CC2)c(F)c1Nc1ccc(I)cc1C [Example 221, 2,3,5-Trifluoro-6-(4-iodo-2-methyl-phenylamino)-4-(4-methyl-piperazin-1-yl)-benzoic acid methyl ester dihydrofluoride salt] |  |
| 85 nM | Cc1cc(I)ccc1Nc1c(C(=O)NN2CCN(C)CC2)cc(Br)c(F)c1F [Example 222, 5-Bromo-3,4-difluoro-2-(4-iodo-2-methyl-phenylamino)-N-(4-methyl-piperazin-1-yl)-benazmide] |  |
| 43 nM | Cc1cc(I)ccc1Nc1c(C(=O)NN(C)C)cc(Br)c(F)c1F [Example 223, 5-Bromo-3,4-difluoro-2-(4-iodo-2-methyl-phenylamino)-benzoic acid N',N'-dimethyl-hydrazide] |  |
| 28 nM | Cc1cc(I)ccc1Nc1cc(F)ccc1C(=O)NN [Example 224, 4-Fluoro-2-(4-iodo-2-methyl-phenylamino)-benzoic acid hydrazide] |  |

Reference: patent EP0993437B1, “2-(4-BROMO OR 4-IODO PHENYLAMINO) BENZOIC ACID DERIVATIVES AND THEIR USE AS MEK INHIBITORS” (Warner-Lambert Company LLC, priority 1997, dated 1999)
